The values below come from paper PMC9219098 (ACS Omega, 2022).

The experiment addresses AChE (Homo sapiens, UniProt P22303). Kind of experiment: In vitro AChE enzyme assay. The format is biochemical.

The IC50 is the concentration needed to halve the response being measured.

Where two headings read alike, the source gives them in different places.

Sequence of AChE (P22303 32-614): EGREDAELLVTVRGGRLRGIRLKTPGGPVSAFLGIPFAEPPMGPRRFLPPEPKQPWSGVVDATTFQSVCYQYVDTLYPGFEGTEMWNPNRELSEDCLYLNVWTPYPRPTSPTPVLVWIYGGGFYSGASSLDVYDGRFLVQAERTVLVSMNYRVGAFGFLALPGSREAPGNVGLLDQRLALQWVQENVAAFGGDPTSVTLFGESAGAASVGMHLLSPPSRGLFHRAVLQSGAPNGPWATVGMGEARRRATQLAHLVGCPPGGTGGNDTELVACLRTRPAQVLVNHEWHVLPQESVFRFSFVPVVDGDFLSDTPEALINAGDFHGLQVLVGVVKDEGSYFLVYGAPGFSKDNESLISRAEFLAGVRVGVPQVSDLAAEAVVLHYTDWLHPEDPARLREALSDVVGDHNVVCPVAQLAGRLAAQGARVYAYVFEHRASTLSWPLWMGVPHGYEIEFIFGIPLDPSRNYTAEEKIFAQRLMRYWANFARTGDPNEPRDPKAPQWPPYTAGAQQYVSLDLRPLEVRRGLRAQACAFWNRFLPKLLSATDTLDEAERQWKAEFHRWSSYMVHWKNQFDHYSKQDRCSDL

In turn, `CC(=O)C=Cc1ccc(C(F)(F)F)cc1` [CHEMBL74630, 1-[4-(trifluoromethyl)phenyl]but-1-en-3-one] came in with an IC50 of 26.3 ± 2.18 µM. Regarding `Cc1cccc(C(=O)C(F)(F)F)c1` [CHEMBL86868, 3′-methyl-2,2,2-trifluoroacetophenone, reference compound], the IC50 is 0.35 ± 0.03 µM.

`O=C(c1ccccc1)C(F)(F)F` [CHEMBL293277, trifluoroacetophenone] showed an IC50 of 4.61 ± 0.34 µM.

`COC(F)(F)C(F)(F)C(F)(F)C(F)(F)F` [CHEMBL500823, methyl nonafluorobutyl ether] yielded an IC50 (Ellman method, ACTI substrate, mean ± SD, triplicate) of 52.6 ± 4.14 µM. `FC(F)(F)C(F)(F)C(F)(F)C(F)(F)C(F)(F)C(F)(F)F` [CHEMBL1200607, perflexane] came in with an IC50 of 50.7 ± 3.73 µM.
